Assay results published in patent US12678447B2, “Combinations of RIPK1- and IKK-inhibitors for the prevention or treatment of immune diseases” (Universität zu Köln, priority 2017, dated 2026).
Entries after “also recorded” stand apart in the source; their conditions may differ.

System: bone marrow derived macrophages (BMDMs)
Experiment: LPS-induced IL-1β secretion in BMDMs treated with IKK2 inhibitors (ELISA)
Type: cell-based, mouse
Experimental: Bone marrow was isolated from the tibiae and femurs of one WT and one Ripk1^D138N/D138N mouse (6-7 week old). Bone marrow from one leg of each mouse was immediately frozen Bone marrow cells from the other leg were spun down at 1200 rpm, for 5 min and seeded in 15 cm^2 non-treated cell culture plates in 20 ml of medium containing 10 ng/ml M-CSF. Cells were allowed to differentiate for six days and subsequently adherent BMDMs were lifted, counted and seeded at a density of 2×10^5 cells/well in a 48 well plate. The day after, cells were pretreated with different concentrations of the IKK2 inhibitors for 30 min before stimulation with 100 ng/ml LPS in a total volume of 250 μl. Each experimental condition was assayed in triplicate. 20-24 h later supernatants were removed, cleared from floating cells and were frozen until cytokine measurements. IL-1β concentration was determined with a specific ELISA (eBioscience) following the manufacturer's instructions.
For the experiment with Nec1 the frozen bone marrow cells were used. After thawing, macrophages were differentiated as described above for fresh bone marrow cells. Necrostatin-1 (Nec-1) was added together with the IKK2 inhibitors during the 30 min pretreatment BMDMs were stimulated with LPS for 20-24 h and supernatants were kept for ELISA measurements. […]

SMILES | amount of secreted IL-1β (LPS-induced, in BMDMs treated with IKK2 inhibitors) (Nec1 added together with IKK2 inhibitors during 30 min pretreatment, 100 ng/ml LPS for 20-24 h, FIG. 1B) | IL-1β secretion upon LPS stimulation (WT BMDMs pretreated 30 min with IKK2 inhibitor, then 100 ng/ml LPS for 20-24 h, IL-1β ELISA of supernatant)
CN1C(=O)C(Cc2c[nH]c3ccccc23)NC1=S (centres unmarked) [Necrostatin-1, 5-(1H-indo1-3-ylmethyl)-3-methyl-2-thioxo-4-imidazolidinone] | strongly diminished the LPS-induced production of IL-1β; also recorded: strongly reduced the amount of secreted IL-1β | 
NC(=O)Nc1sc(-c2ccc(F)cc2)cc1C(N)=O [TPCA-1] |  | greater potency
